How the values were obtained:
HIV-1LAI virus [1] = test: Cell fusion assay (HIV-1 induced syncytia formation); assay type: cell-based
Source text: The results of several such experiments are presented herein.

HIV-2 = test: Fusion inhibition assay, HIV-2 mediated syncytia formation; assay type: cell-based; conditions: FIG. 5
Description: Approximately 7×10^4 Molt cells were incubated with 1×10^4 CEM cells chronically infected with the HIV-1LAI virus in 96-well plates (one-half area cluster plates; Costar, Cambridge, Mass.) in a final volume of 100 μl culture medium as previously described (Matthews, T. J. et al., 1987, Proc. Natl. Acad. Sci. USA 84: 5424-5428). Peptide inhibitors were added in a volume of 10 μl and the cell mixtures were incubated for 24 hr. at 37° C. At that time, multinucleated giant cells were estimated by microscopic examination at a 40× magnification which allowed visualization of the entire well in a single field.

HIV-1LAI virus [2] = test system: HIV-1LAI virus
Description: (§1) Synthetic peptides were incubated at 37° C. with either 247 TCID50 (for experiment depicted in FIG. 2), or 62 TCID50 (for experiment depicted in FIG. 3) units of HIV-1LAI virus or 25 TCID50 units of HIV-2NIHZ and CEM CD4^+ cells at peptide concentrations of 0, 0.04, 0.4, 4.0, and 40 μg/ml for 7 days. The resulting reverse transcriptase (RT) activity in counts per minute was determined using the assay described, below, in Section 6.1.5. See Reed, L. J. et al., 1938, Am. J. Hyg. 27: 493-497 for an explanation of TCID50 calculations.
(§2) The micro-reverse transcriptase (RT) assay was adapted from Goff et al. (Goff, S. et al., 1981, J. Virol. 38:239-248) and Willey et al. (Willey, R. et al., 1988, J. Virol. 62:139-147). Supernatants from virus/cell cultures are adjusted to 1% Triton-X100. A 10 μl sample of supernatant was added to 50 μl of RT cocktail in a 96-well U-bottom microtitre plate and the samples incubated at 37° C. for 90 min. The RT cocktail contained 75 mM KCl, 2 mM dithiothreitol, 5 mM MgCl2, 5 μg/ml poly A (Pharmacia, cat. No. 27-4110-01), 0.25 units/ml oligo dT (Pharmacia, cat. No. 27-7858-01), 0.05% NP40, 50 mM Tris-HCl, pH 7.8, 0.5 μM non-radioactive dTTP, and 10 μCi/ml ^32P-dTTP (Amersham, cat. No. PB.10167).
After the incubation period, 40 μl of reaction mixture was applied to a Schleicher and Schuell (S+S) NA45 membrane (or DE81 paper) saturated in 2×SSC buffer (0.3M NaCl and 0.003M sodium citrate) held in a S+S Minifold over one sheet of GB003 (S+S) filter paper, with partial vacuum applied. Each well of the minifold was washed four times with 200 μl 2×SSC, under full vacuum. The membrane was removed from the minifold and washed 2 more times in a pyrex dish with an excess of 2×SSC. Finally, the membrane was drained on absorbent paper, placed on Whatman #3 paper, covered with Saran wrap, and exposed to film overnight at −70° C.
DP178 (SEQ ID:1) was next tested for its ability to block CD-4^+ CEM cell infection by cell free HIV-1 virus. […]

HIV-2NIHZ = test: Cell free virus infection assay (RT production); assay type: cell-based; conditions: 25 TCID50 HIV-2NIHZ, CEM cells, 7 days
Description: as §1
as §2, with “PB.10167). […]” for “PB.10167).”

[3] = test system: HIV-1IIIB chronically infected CEM cells; assay type: cell-based; conditions: 10 nM
Description: Cell fusion assays were performed as previously described (Matthews et al., 1987, Proc. Natl. Acad. Sci. USA 84: […]). CEM cells (7×10^4) were incubated with HIV-1IIIB chronically infected CEM cells (10^4) in 96-well flat-bottomed half-area plates (Costar) in 100 μl culture medium. Peptide and fusion proteins at various concentrations in 10 μl culture medium were incubated with the cell mixtures at 37° C. for 24 hours. Multinucleated syncytia were estimated with microscopic examination.
No peptide or fusion protein was added in the control samples.

HIV-1IIIB = assay type: cell-based
Fab-d = test: ELISA analysis of DP178 binding to the leucine zipper motif of gp41 (Fab-d ELISA); parameters: species or system human; conditions: reagent alone
Description: The amino acid sequence of DP178 used is: […]. […] Each well was washed three times with distilled water then blocked with 3% bovine serum albumin (BSA) for 2 hours. After blocking, peptides with 0.5% BSA in TBST (40 mM Tris-HCl pH7.5, 150 mM NaCl, 0.05% Tween 20) were added to the ELISA plates and incubated at room temperature for 1 hour. After washing three times with TBST, Fab-d was added at a concentration of 10 ng/ml with 0.5% BSA in TBST. The plates were washed three times with TBST after incubation at room temperature for 1 hour. Horse radish peroxidase (HRP) conjugated goat antihuman Fab antiserum at a 2000 fold dilution in TBST with 0.5% BSA was added to each well and incubated at room temperature for 45 minutes. The plates were then washed four times with TBST. The peroxidase substrate o-phenylene diamine (2.5 mg/ml) and 0.15% H2O2 were added to develop the color. The reaction was stopped with an equal volume of 4.5 N H2SO4 after incubation at room temperature for 10 minutes. The optical density of the stopped reaction mixture was measured with a micro plate reader (Molecular Design) at 490 nm.

HIV-1/IIIb = test: Anti-HIV assays of DP107/DP178 truncations and mutations; assay type: cell-based; conditions: worded 'results shown are for 4 ng/ml'
Source text: Anti-HIV assays: The antiviral assays performed were as those described, above, in Section 6.1. Assays utilized HIV-1/IIIb and/or HIV-2 NIHZ isolates. Purified peptides were used, unless otherwise noted in FIGS. 49A-C.

Enfuvirtide
selectivity as inhibitor of HIV-1-mediated over HIV-2 mediated cell fusion (HIV-1LAI virus [1]): 4 log | peptide concentration blocking HIV-1-mediated syncytia formation (HIV-1LAI virus [1]; FIG. 5, HIV-1 vs HIV-2): below 1 ng/ml | complete protection against syncytium formation down to lowest concentration tested (HIV-1LAI virus [1]; HIV-1LAI): ≤ 12.5 ng/mL | lowest effective inhibitory concentration, complete block of virus induced syncytia formation (HIV-1LAI virus [1]; Molt cells + chronically HIV-1 infected CEM cells, 24 hr): 1 to 10 ng/mL | complete protection against syncytium formation down to lowest concentration used (HIV-1LAI virus [1]; all other HIV-1 viruses (HIV-1MN, HIV-1RF, HIV-1SF2)): ≤ 100 ng/mL | concentration failing to block HIV-2 mediated syncytia formation (HIV-2): > 10 µg/mL | IC50, inhibition of RT production (HIV-1LAI virus [2]; 62 TCID50 HIV-1LAI, CEM cells, 7 days): about 31 ng/ml | potency as HIV-1 inhibitor relative to HIV-2 inhibitor (HIV-1LAI virus [2]; cell free virus infection): two logs more potent | IC50 for HIV-2NIHZ (HIV-2NIHZ): much higher | syncytia in HIV-1 induced cell-cell fusion [3]: not observable syncytia | IC90 (HIV-1IIIB): 80 nM | binding of Fab-d (Fab-d): failed to bind | anti-HIV antiviral data, results shown (FIGS. 49A-C) (HIV-1/IIIb): 4 ng/mL
